Patent US4190670A, “Prostaglandin derivatives” (priority 1974, dated 1980)
Like-named read-outs stand apart in the source and are kept apart here.

Experiments:
[1] = system: bronchioles (bronchial resistance); assay: Guinea-pig multiparameter test: bronchial resistance; type: in vivo; details: anaesthetized guinea-pig
Procedure: (§1) The selective activity of the hydroxy-prostaglandin derivatives of the present invention was established by a multiparameter guinea-pig test. In this test guinea-pigs weighing 600-900 g are anaesthetized with sodium pentobarbitone (45 mg/kg, i.p.). Supplementary doses of sodium pentobarbitone (3-6 mg i.v.) are administered when required (i.e. when spontaneous respiration appears). The jugular vein is cannulated for the administration of drugs. The guinea-pig is artificially respired with N2 O/O2 (7/3), using a Keuskamp respirator.
(§2) Then the following functions are measured:
b. Bronchial resistance and tracheal segment pressure.
A cannula is inserted into the trachea as close as possible to the thorax. The guinea-pig is artificially ventilated at 55 strokes/min. The pressure changes, assumed to be due to changes caused by the bronchioles, are measured by a pressure transducer attached to a side arm of the cannula. The trachea is occluded at its lower end with a blind-ended cannula, while a cannula is further introduced into the trachea as close as possible to the larynx. The system is completely filled with saline, and connected to a very sensitive pressure transducer. Changes in the pressure measured (cm H2 O) are assumed to reflect changes in the tone of the smooth muscle of the trachea. The trachea segment cannula is inserted with extreme caution so as to avoid disruption of the nerve or blood supply to the segment.

[2] = system: duodenum (intestinal motility); assay: Guinea-pig multiparameter test: intestinal contractions; type: in vivo; details: anaesthetized guinea-pig
Procedure: as §1, §2
c. Measurement of intestinal motility.
A balloon, containing distilled water and connected to a pressure transducer, is inserted in the duodenum of the guinea-pig. Care is taken on ligaturing the cannula to avoid stricture of the duodenum. The balloon is at a pressure of 10-20 mm Hg.

[3] = system: uterus (uterine motility); assay: Guinea-pig multiparameter test: uterine contractions; type: in vivo; details: anaesthetized guinea-pig
Procedure: as §1, §2
d. Measurement of uterine motility.
A polyethylene cannula is inserted into the uterus via the vagina to a depth of 2.5 cm. This is then tied off with a ligature around the cervix. The cannula is connected to a pressure transducer, the whole system being filled with liquid paraffin at a pressure of 10-20 mm Hg.

[4] = system: Histamine-induced broncho-constriction; assay: Antagonism of histamine-induced broncho-constriction (guinea-pig); type: in vivo; details: Cavia porcellus, iv, read-out: % INHIBITION (± S.D.) of histamine-induced broncho-constriction
Procedure: The activity of the 18.xi.-, 19.xi.- and 20.xi.-hydroxy-prostaglandin derivatives on the respiratory tract misculature was further confirmed by determination of their ability to antagonize histamine-induced bronchoconstriction. This test is a modification of the guinea-pig multiparameter test, cannulations being carried out only for recording blood pressure, tracheal segment pressure and bronchial resistance.
Histamine was injected i.v. in a dose of 4 μg (as base) at regular intervals throughout the experiment. If extra doses of sodium pentobarbitone had to be administered during the course of the experiment to suppress voluntary respiration, the interval to the next dose of histamine was lengthened.
Test compounds were injected i.v. one minute before histamine in volumes less than 0.5 ml. The substances were washed in with 0.3 ml sterile saline. The lungs were artificially over-ventilated one minute prior to injection of the test compounds.
The ability of the compounds to counteract histamine-induced bronchoconstriction and the increase in tracheal segment pressure was determined using two dose levels--a low one and a high one.

rabbit eye = assay: Irritation following topical application in the rabbit eye (Draize scoring method); type: in vivo
Text: This effect can be studied using the Draize scoring method for determining irritation following topical application in the rabbit eye.

[5] = cited from earlier work

For CCC(O)CC[C@H](O)/C=C/[C@H]1CCC(=O)[C@@H]1CCCCCCC(=O)O (relative stereo) [9-keto-15α,18.xi.-dihydroxy-prost-13(t)-enoic acid], the BRONCHIAL resistance ([1]; dose 100 μg) was 0, the INTESTINAL contractions ([2]; dose 100 μg) was 0 and the UTERINE contractions ([3]; dose 100 μg) was 0. It also gave an inhibition in vivo at 0.001 mg [4] of 25.9% and an inhibition in vivo at 0.1 mg [4] of roughly 80%.
With CC(O)CCC[C@H](O)/C=C/[C@H]1CCC(=O)[C@@H]1CCCCCCC(=O)O (relative stereo) [9-keto-15α,19.xi.-dihydroxy-prost-13(t)-enoic acid] the BRONCHIAL resistance ([1]; dose 100 μg) was 0, the INTESTINAL contractions ([2]; dose 100 μg) was 0 and the UTERINE contractions ([3]; dose 100 μg) was 0. It also gave an inhibition in vivo at 0.001 mg [4] of 23.9% and an inhibition in vivo at 0.1 mg [4] of 88.1%.
CC(O)CCC[C@@H](O)/C=C/[C@H]1CCC(=O)[C@@H]1CCCCCCC(=O)O (relative stereo) [9-keto-15β,19.xi.-dihydroxy-prost-13(t)-enoic acid] showed an inhibition in vivo at 0.5 mg [4] of roughly 85%.
Compound CC(O)CCC[C@@H](O)/C=C/[C@H]1CC[C@H](O)[C@@H]1CCCCCCC(=O)O (relative stereo) [9α,15β,19.xi.-trihydroxy-prost-13-(t)-enoic acid] has an inhibition in vivo at 0.5 mg [4] of roughly 60%.
Compound CCC(O)CC[C@H](O)/C=C/[C@H]1CC[C@@H](O)[C@@H]1CCCCCCC(=O)O (relative stereo) [9β,15α,18.xi.-trihydroxy-prost-13(t)-enoic acid] has a BRONCHIAL resistance ([1]; dose 500 μg) of 0, an INTESTINAL contractions ([2]; dose 500 μg) of 0 and a UTERINE contractions ([3]; dose 500 μg) of 0. For the same compound, the inhibition in vivo at 0.1 mg [4] was 28.1%.
Compound CC(O)CCC[C@H](O)/C=C/[C@H]1CC[C@@H](O)[C@@H]1CCCCCCC(=O)O (relative stereo) [9β,15α,19.xi.-trihydroxy-prost-13(t)-enoic acid] has a BRONCHIAL resistance ([1]; dose 500 μg) of 0, an INTESTINAL contractions ([2]; dose 500 μg) of 0 and a UTERINE contractions ([3]; dose 500 μg) of 0. It also gave an inhibition in vivo at 0.1 mg [4] of 62.5%.
In the case of O=C(O)CCCCCC[C@H]1[C@H](O)CC[C@@H]1/C=C/[C@@H](O)CCCCCO (relative stereo) [9β,15α,20-trihydroxy-prost-13(t)-enoic acid], the BRONCHIAL resistance ([1]; dose 500 μg) is reported as 0, the INTESTINAL contractions ([2]; dose 500 μg) is reported as 0 and the UTERINE contractions ([3]; dose 500 μg) is reported as 0. For the same compound, the inhibition in vivo at 0.1 mg [4] was 52.9%.
In the case of CCC(O)CC[C@H](O)/C=C/[C@H]1[C@H](O)CC(=O)[C@@H]1CCCCCCC(=O)O (stereo partly drawn) [9-keto-11α,15α,18.xi.-trihydroxy-prost-13(t)-enoic acid], the inhibition in vivo at 0.001 mg [4] is reported as roughly 70%.
In the case of CCC(O)CC[C@H](O)/C=C/[C@H]1[C@H](O)CC(=O)[C@@H]1C/C=C\CCCC(=O)O (stereo partly drawn) [9-keto-11α,15α,18.xi.-trihydroxy-prosta-5(c),13(t)-dienoic acid], the inhibition in vivo at 0.001 mg [4] is reported as roughly 35%.
Compound CC(O)CCC[C@H](O)/C=C/[C@H]1[C@H](O)CC(=O)[C@@H]1CCCCCCC(=O)O (stereo partly drawn) [9-keto-11α,15α,19.xi.-trihydroxy-prost-13(t)-enoic acid] has an inhibition in vivo at 0.001 mg [4] of roughly 60%.
Compound CC(O)CCC[C@H](O)/C=C/[C@H]1[C@H](O)CC(=O)[C@@H]1C/C=C\CCCC(=O)O (stereo partly drawn) [9-keto-11α,15α,19.xi.-trihydroxy-prosta-5(c),13(t)-dienoic acid] has an inhibition in vivo at 0.001 mg [4] of roughly 70%.
With CCC(O)CC[C@H](O)/C=C/[C@H]1CCC(=O)[C@@H]1C/C=C\CCCC(=O)O (stereo partly drawn) [9-keto-15α,18.xi.-dihydroxy-prosta-5(c),13(t)-dienoic acid] the inhibition in vivo at 0.001 mg [4] was 45%.
In the case of CC(O)CCC[C@H](O)/C=C/[C@H]1CCC(=O)[C@@H]1C/C=C\CCCC(=O)O (stereo partly drawn) [9-keto-15α,19.xi.-dihydroxy-prosta-5(c),13(t)-dienoic acid], the inhibition in vivo at 0.001 mg [4] is reported as 50.3%.
In the case of O=C(O)CCC/C=C\C[C@H]1C(=O)CC[C@@H]1/C=C/[C@@H](O)CCCCCO [9-keto-15α,20-dihydroxy-prosta-5(c),13(t)-dienoic acid], the inhibition in vivo at 0.001 mg [4] is reported as 60.7%.
For CCCCC[C@H](O)/C=C/[C@H]1[C@H](O)CC(=O)[C@@H]1CCCCCCC(=O)O [PGE1, 9-keto-11α,15α-dihydroxy-prost-13(t)-enoic acid, reference compound], the BRONCHIAL resistance ([1]; dose 5 μg) was 0, the UTERINE contractions ([3]; dose 5 μg) was 0 and the inhibition in vivo at 0.0001 mg ([4]; dose 0.1 μg i.v., one minute before histamine 4 μg i.v.) was 27.6%. The inhibition in vivo at 0.001 mg ([4]; dose 1 μg i.v., one minute before histamine 4 μg i.v.) was 53.2%, the inhibition in vivo at 0.005 mg ([4]; dose 5.0 μg i.v., one minute before histamine 4 μg i.v.) was roughly 88% and the threshold irritant dose (rabbit eye) was 1 μg/eye.
In the case of CCCCC[C@H](O)/C=C/[C@H]1[C@H](O)CC(=O)[C@@H]1C/C=C\CCCC(=O)O [PGE2, 9-keto-11α,15α-dihydroxy-prosta-5(c),13(t)-dienoic acid], the “persistant coughing on aerosol use” value [5] is given as “persistant coughing”.
